Assay results published in publication PMC3272785 (2011).

Key:
[1] = target: T1, yeast cytosine deaminase (yCD) (Saccharomyces cerevisiae, UniProt Q12178); experiment: fluorometric titration; assay type: binding
T1 sequence (Q12178 6-158): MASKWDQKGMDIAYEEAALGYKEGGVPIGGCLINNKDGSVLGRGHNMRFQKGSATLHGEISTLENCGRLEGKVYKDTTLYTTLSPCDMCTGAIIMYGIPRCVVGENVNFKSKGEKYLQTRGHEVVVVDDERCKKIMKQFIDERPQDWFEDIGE

[2] = target: T2, yeast cytosine deaminase (yCD) (Saccharomyces cerevisiae, UniProt Q12178, E64D); experiment: radiometric 5FC deamination inhibition assay; assay type: biochemical
T2 sequence (Q12178 6-158 E64D): T1 sequence (Q12178 6-158)

Compound: Oc1ncc(F)cn1 [5FPy, 5-fluoro-1H-pyrimidin-2-one]
- Kd [1]: 0.65 ± 0.08 µM
- Ki [2]: 1060 ± 60 µM
